What was measured:
Brain [1] = experiment: Biodistribution in Sprague-Dawley rat brain at 37 to 111 MBq, iv measured at 2 hrs by gamma counting analysis; format: ADME, organism-based; conditions: in vivo
Rattus norvegicus [2] = experiment: Biodistribution in Sprague-Dawley rat testis at 37 to 111 MBq, iv measured at 2 hrs by gamma counting analysis; format: ADME, organism-based; conditions: in vivo
Heart [3] = experiment: Biodistribution in Sprague-Dawley rat heart at 37 to 111 MBq, iv measured at 2 hrs by gamma counting analysis; format: ADME, organism-based; conditions: in vivo
Rattus norvegicus [4] = experiment: Biodistribution in Sprague-Dawley rat urinary bladder at 37 to 111 MBq, iv measured at 24 hrs by gamma counting analysis; format: ADME, organism-based; conditions: in vivo
[5] = Drug uptake in Sprague-Dawley rat parathyroid at 37 to 111 MBq, iv measured for 60 mins by TTC staining-based micro-SPECT analysis; format: ADME, organism-based, Thyroid gland; conditions: in vivo, 1 h
[6] = Ratio of drug level in heart to blood in Sprague-Dawley rat at 37 to 111 MBq, iv measured at 24 hrs; format: ADME, organism-based
Femur [7] = experiment: Biodistribution in Sprague-Dawley rat femur at 37 to 111 MBq, iv measured at 2 hrs by gamma counting analysis; format: ADME, organism-based; conditions: in vivo
Heart [8] = experiment: Biodistribution in Sprague-Dawley rat heart at 37 to 111 MBq, iv measured at 24 hrs by gamma counting analysis; format: ADME, organism-based; conditions: in vivo
Ovary [9] = experiment: Biodistribution in Sprague-Dawley rat ovary at 37 to 111 MBq, iv measured at 2 hrs by gamma counting analysis; format: ADME, organism-based, Female gonad; conditions: in vivo
[10] = Drug uptake in left ventricle of Sprague-Dawley rat left anterior descending occlusion model at 74 MBq, iv measured for 60 mins by TTC staining-based micro-SPECT analysis; format: ADME, organism-based, Heart left ventricle; conditions: in vivo, 1 h
Thyroid gland [11] = experiment: Drug uptake in Sprague-Dawley rat thyroid at 37 to 111 MBq, iv measured for 60 mins by TTC staining-based micro-SPECT analysis; format: ADME, organism-based; conditions: in vivo, 1 h
Brain [12] = experiment: Biodistribution in Sprague-Dawley rat brain at 37 to 111 MBq, iv measured at 24 hrs by gamma counting analysis; format: ADME, organism-based; conditions: in vivo
Rattus norvegicus [13] = experiment: Biodistribution in Sprague-Dawley rat stomach at 37 to 111 MBq, iv measured at 24 hrs by gamma counting analysis; format: ADME, organism-based; conditions: in vivo
Liver [14] = experiment: Biodistribution in Sprague-Dawley rat liver at 37 to 111 MBq, iv measured at 2 hrs by gamma counting analysis; format: ADME, organism-based; conditions: in vivo
Blood [15] = experiment: Biodistribution in Sprague-Dawley rat blood at 37 to 111 MBq, iv measured at 24 hrs by gamma counting analysis; format: ADME, organism-based; conditions: in vivo
Spleen [16] = experiment: Biodistribution in Sprague-Dawley rat spleen at 37 to 111 MBq, iv measured at 2 hrs by gamma counting analysis; format: ADME, organism-based; conditions: in vivo
Spleen [17] = experiment: Biodistribution in Sprague-Dawley rat spleen at 37 to 111 MBq, iv measured at 24 hrs by gamma counting analysis; format: ADME, organism-based; conditions: in vivo
[18] = Ratio of drug level in heart to lung in Sprague-Dawley rat at 37 to 111 MBq, iv measured at 2 hrs; conditions: in vivo
Femur [19] = experiment: Biodistribution in Sprague-Dawley rat femur at 37 to 111 MBq, iv measured at 24 hrs by gamma counting analysis; format: ADME, organism-based; conditions: in vivo
Thyroid gland [20] = experiment: Biodistribution in Sprague-Dawley rat thyroid assessed per organ at 37 to 111 MBq, iv measured at 2 hrs by gamma counting analysis; format: ADME, organism-based; conditions: in vivo
Rattus norvegicus [21] = experiment: Biodistribution in Sprague-Dawley rat stomach at 37 to 111 MBq, iv measured at 2 hrs by gamma counting analysis; format: ADME, organism-based; conditions: in vivo
Ovary [22] = experiment: Biodistribution in Sprague-Dawley rat ovary at 37 to 111 MBq, iv measured at 24 hrs by gamma counting analysis; format: ADME, organism-based, Female gonad; conditions: in vivo
Thyroid gland [23] = experiment: Biodistribution in Sprague-Dawley rat thyroid at 37 to 111 MBq, iv measured at 24 hrs by gamma counting analysis; format: ADME, organism-based; conditions: in vivo
Muscle tissue [24] = experiment: Biodistribution in Sprague-Dawley rat muscle at 37 to 111 MBq, iv measured at 24 hrs by gamma counting analysis; format: ADME, organism-based; conditions: in vivo
Thyroid gland [25] = experiment: Biodistribution in Sprague-Dawley rat thyroid assessed per organ at 37 to 111 MBq, iv measured at 24 hrs by gamma counting analysis; format: ADME, organism-based; conditions: in vivo
[26] = Ratio of drug level in heart to blood in Sprague-Dawley rat at 37 to 111 MBq, iv measured at 2 hrs; format: ADME, organism-based
Liver [27] = experiment: Biodistribution in Sprague-Dawley rat liver at 37 to 111 MBq, iv measured at 24 hrs by gamma counting analysis; format: ADME, organism-based; conditions: in vivo
Liver [28] = experiment: Drug uptake in Sprague-Dawley rat liver at 37 to 111 MBq, iv measured for 60 mins by TTC staining-based micro-SPECT analysis; format: ADME, organism-based; conditions: in vivo, 1 h
Muscle tissue [29] = experiment: Biodistribution in Sprague-Dawley rat muscle at 37 to 111 MBq, iv measured at 2 hrs by gamma counting analysis; format: ADME, organism-based; conditions: in vivo
Thyroid gland [30] = experiment: Biodistribution in Sprague-Dawley rat thyroid at 37 to 111 MBq, iv measured at 2 hrs by gamma counting analysis; format: ADME, organism-based; conditions: in vivo
[31] = Drug uptake in left ventricle of Sprague-Dawley rat ischemia reperfusion injury model at 74 MBq, iv measured for 60 mins by TTC staining-based micro-SPECT analysis; format: ADME, organism-based, Heart left ventricle; conditions: in vivo, 1 h
[32] = Drug uptake in Sprague-Dawley rat myocardium at 37 to 111 MBq, iv measured for 60 mins by TTC staining-based micro-SPECT analysis; format: ADME, organism-based; conditions: in vivo, 1 h
[33] = Biodistribution in Sprague-Dawley rat urine at 37 to 111 MBq, iv measured at 24 hrs by gamma counting analysis; format: ADME, organism-based; conditions: in vivo
Intestine [34] = experiment: Biodistribution in Sprague-Dawley rat intestine at 37 to 111 MBq, iv measured at 2 hrs by gamma counting analysis; format: ADME, organism-based; conditions: in vivo
Kidney [35] = experiment: Biodistribution in Sprague-Dawley rat kidney at 37 to 111 MBq, iv measured at 24 hrs by gamma counting analysis; format: ADME, organism-based; conditions: in vivo
Kidney [36] = experiment: Biodistribution in Sprague-Dawley rat kidney at 37 to 111 MBq, iv measured at 2 hrs by gamma counting analysis; format: ADME, organism-based; conditions: in vivo
Lung [37] = experiment: Biodistribution in Sprague-Dawley rat lung at 37 to 111 MBq, iv measured at 2 hrs by gamma counting analysis; format: ADME, organism-based; conditions: in vivo
Blood [38] = experiment: Biodistribution in Sprague-Dawley rat blood at 37 to 111 MBq, iv measured at 2 hrs by gamma counting analysis; format: ADME, organism-based; conditions: in vivo
Lung [39] = experiment: Biodistribution in Sprague-Dawley rat lung at 37 to 111 MBq, iv measured at 24 hrs by gamma counting analysis; format: ADME, organism-based; conditions: in vivo
[40] = Ratio of drug level in heart to lung in Sprague-Dawley rat at 37 to 111 MBq, iv measured at 24 hrs; conditions: in vivo
Rattus norvegicus [41] = experiment: Biodistribution in Sprague-Dawley rat urinary bladder at 37 to 111 MBq, iv measured at 2 hrs by gamma counting analysis; format: ADME, organism-based; conditions: in vivo
Intestine [42] = experiment: Biodistribution in Sprague-Dawley rat intestine at 37 to 111 MBq, iv measured at 24 hrs by gamma counting analysis; format: ADME, organism-based; conditions: in vivo
Lung [43] = experiment: Drug uptake in Sprague-Dawley rat lung at 37 to 111 MBq, iv measured for 60 mins by TTC staining-based micro-SPECT analysis; format: ADME, organism-based; conditions: in vivo, 1 h
[44] = Biodistribution in Sprague-Dawley rat urine at 37 to 111 MBq, iv measured at 2 hrs by gamma counting analysis; format: ADME, organism-based; conditions: in vivo
Rattus norvegicus [45] = experiment: Biodistribution in Sprague-Dawley rat testis at 37 to 111 MBq, iv measured at 24 hrs by gamma counting analysis; format: ADME, organism-based; conditions: in vivo
[46] = Ratio of drug level in heart to liver in Sprague-Dawley rat at 37 to 111 MBq, iv measured at 24 hrs; conditions: in vivo
[47] = Ratio of drug level in heart to liver in Sprague-Dawley rat at 37 to 111 MBq, iv measured at 2 hrs; conditions: in vivo

In the case of `COc1cc2c(cc1OC)[C@@H]1C(=O)c3ccc4c(c3O[C@@H]1CO2)C[C@H](C(C)(O)C[123I])O4` (some centres not stated), the Drug uptake (Brain [1]) was 0.098 % ID/g, the Drug uptake (Rattus norvegicus [2]) was 0.22 % ID/g and the Drug uptake (Heart [3]) was 2.01 % ID/g. For the same compound, the Drug uptake (Rattus norvegicus [4]) was 0.768 % ID/g, the Drug uptake [5] was “Active” and the Kp at 24 h [6] was 0.79. The Drug uptake (Femur [7]) was 0.242 % ID/g, the Drug uptake (Heart [8]) was 0.045 % ID/g and the Drug uptake (Ovary [9]) was 0.22 % ID/g. For the same compound, the Drug uptake [10] was “Active”, the Drug uptake (Thyroid gland [11]) was “Active” and the Drug uptake (Brain [12]) was 0.003 % ID/g. The Drug uptake (Rattus norvegicus [13]) was 2.121 % ID/g, the Drug uptake (Liver [14]) was 0.709 % ID/g and the Drug uptake (Blood [15]) was 0.06 % ID/g. It also gave a Drug uptake (Spleen [16]) of 0.234 % ID/g, a Drug uptake (Spleen [17]) of 0.032 % ID/g and a Ratio [18] of 4.11. The Drug uptake (Femur [19]) was 0.025 % ID/g, the Drug uptake (Thyroid gland [20]) was 0.334 %ID and the Drug uptake (Rattus norvegicus [21]) was 3.263 % ID/g. For the same compound, the Drug uptake (Ovary [22]) was 0.04 % ID/g, the Drug uptake (Thyroid gland [23]) was 13.329 % ID/g and the Drug uptake (Muscle tissue [24]) was 0.024 % ID/g. For the same compound, the Drug uptake (Thyroid gland [25]) was 3.16 %ID, the Kp at 2 h [26] was 8.37 and the Drug uptake (Liver [27]) was 0.042 % ID/g. The Drug uptake (Liver [28]) was “Not Active”, the Drug uptake (Muscle tissue [29]) was 0.357 % ID/g and the Drug uptake (Thyroid gland [30]) was 1.368 % ID/g. The Drug uptake [31] was “Active”, the Drug uptake [32] was “Active” and the Drug uptake [33] was 0.768 % ID/g. The Drug uptake (Intestine [34]) was 0.846 % ID/g, the Drug uptake (Kidney [35]) was 0.044 % ID/g and the Drug uptake (Kidney [36]) was 0.7 % ID/g. The Drug uptake (Lung [37]) was 0.502 % ID/g, the Drug uptake (Blood [38]) was 0.257 % ID/g and the Drug uptake (Lung [39]) was 0.055 % ID/g. The Ratio [40] was 0.85, the Drug uptake (Rattus norvegicus [41]) was 0.918 % ID/g and the Drug uptake (Intestine [42]) was 0.122 % ID/g. The Drug uptake (Lung [43]) was “Not Active”, the Drug uptake [44] was 0.918 % ID/g and the Drug uptake (Rattus norvegicus [45]) was 0.04 % ID/g. It also gave a Ratio [46] of 1.08 and a Ratio [47] of 2.98.
